The record followed here is ChEMBL document CHEMBL1201862, “PubChem BioAssay data set” (2004).

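Where inhibition never reached the appropriate level, the endpoint shown equals the highest concentration tested. Otherwise, values were interpolated linearly from a five-concentration, 48-hour dose response in 96-well plates. At the GI50, growth is halved.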 Active and inactive are the calls of the source. No stated cut-off is given here; in the data, active = GI50 up to about 1.1 µM and inactive = higher. Where only a bound is given, the exact number is not on record here.

Among the test systems are ACHN; BT-549; HCT-116; HCT-15; HL-60; KM12; MDA-MB-231; NCI-H23; NCI/ADR-RES; OVCAR-4; OVCAR-5; PC-3; SF-295; SK-OV-3; SNB-19; SW-620; T47D; U-251; UACC-257; SF-539.
Common to all, as to test: NCI anticancer screen, dose series, 48 h

For the molecule `CN(C)CCCc1cccnc1`, the GI50 in the experiment on ACHN is > 100 µM (inactive); with BT-549 it was > 100 µM (inactive); in the experiment on HCT-116, > 100 µM (inactive); in the experiment with HCT-15, more than 100 µM; with HL-60, > 100 µM (inactive); in the experiment with KM12 it was > 100 µM (inactive). Moreover, the GI50 in the experiment on MDA-MB-231, in the experiment on NCI-H23, with NCI/ADR-RES, in the experiment on OVCAR-4, in the experiment on OVCAR-5 and in the experiment with PC-3 was > 100 µM (inactive) each time. The GI50 in the experiment on SF-295, in the experiment with SK-OV-3, with SNB-19, in the experiment with SW-620, in the experiment on T47D and in the experiment on U-251 was > 100 µM (inactive) each time. In the experiment with UACC-257, the GI50 is > 100 µM (inactive).
As to `O=[N+]([O-])c1ccc2sc(/C=N/c3ccccn3)cc2c1`, the GI50 is 98.6 µM (inactive) in the experiment on ACHN; 85.1 µM (inactive) with BT-549; 38.4 µM (inactive) in the experiment with HCT-116; 51.4 µM with HCT-15; 28.5 µM (inactive) in the experiment with HL-60; 64.6 µM (inactive) in the experiment on KM12. Besides, the GI50 with MDA-MB-231 is 84.1 µM (inactive); with NCI-H23, 98.2 µM (inactive); in the experiment on NCI/ADR-RES, 97.7 µM (inactive); in the experiment on OVCAR-5, > 100 µM (inactive); in the experiment with PC-3, 69.5 µM (inactive); with SF-295 it was 82.8 µM (inactive). In addition, the GI50 is > 100 µM (inactive) in the experiment with SF-539; > 100 µM (inactive) with SK-OV-3; > 100 µM (inactive) in the experiment on SNB-19; 21.7 µM (inactive) in the experiment on SW-620; 26 µM (inactive) in the experiment on T47D; 33.7 µM (inactive) in the experiment with U-251. In addition, the GI50 in the experiment on UACC-257 is 99.8 µM (inactive).
On to `Cc1nc2c(=O)n(-c3ccccc3)c(=O)n(-c3ccccc3)c2o1`, for which the GI50 was > 100 µM (inactive) with ACHN; > 100 µM (inactive) in the experiment on BT-549; > 100 µM (inactive) in the experiment on HCT-116; more than 100 µM with HCT-15; > 100 µM (inactive) in the experiment with KM12; > 100 µM (inactive) in the experiment on MDA-MB-231. For the same molecule, the GI50 in the experiment with NCI-H23, in the experiment on NCI/ADR-RES, in the experiment with OVCAR-4, with OVCAR-5, in the experiment on PC-3 and in the experiment on SF-295 was > 100 µM (inactive) each time. Besides, the GI50 in the experiment with SF-539, in the experiment on SK-OV-3, with SNB-19, in the experiment with SW-620, with T47D and with U-251 was > 100 µM (inactive) in each case. Moreover, the GI50 in the experiment with UACC-257 was > 100 µM (inactive).
As for `O=C1Nc2cc(Cl)ccc2C(=O)N2CCC[C@@H]12`, the GI50 is > 100 µM (inactive) in the experiment with ACHN; > 100 µM (inactive) with BT-549; > 100 µM (inactive) with HCT-116; more than 100 µM in the experiment on HCT-15; > 100 µM (inactive) with HL-60; > 100 µM (inactive) in the experiment with KM12. Further, the GI50 in the experiment with MDA-MB-231, with NCI-H23, in the experiment with NCI/ADR-RES, in the experiment on OVCAR-4, with OVCAR-5 and in the experiment with PC-3 was > 100 µM (inactive) throughout. In addition, the GI50 in the experiment with SF-295, with SK-OV-3, in the experiment with SNB-19, in the experiment with SW-620, in the experiment on T47D and with U-251 was > 100 µM (inactive) each time. For the same molecule, the GI50 in the experiment on UACC-257 is > 100 µM (inactive).
As to `COc1cc2c[n+](C)c3c4cc(OC)c(OC)cc4c(OC)cc3c2cc1OC`, the GI50 with ACHN is > 100 µM (inactive); with BT-549, 3.92 µM (inactive); in the experiment on HCT-116, 2.92 µM (inactive); in the experiment on HCT-15, more than 100 µM; in the experiment on KM12, 5.27 µM (inactive); in the experiment on MDA-MB-231, 0.53 µM (active). For the same molecule, the GI50 is 5.58 µM (inactive) with NCI-H23; > 100 µM (inactive) with NCI/ADR-RES; 8.02 µM (inactive) with OVCAR-4; > 100 µM (inactive) in the experiment with OVCAR-5; 12.2 µM (inactive) with PC-3; 20 µM (inactive) with SF-295. Further, the GI50 is 1.87 µM (inactive) in the experiment on SF-539; 42.2 µM (inactive) in the experiment with SK-OV-3; 1.03 µM (active) with SNB-19; 7.69 µM (inactive) in the experiment on SW-620; 1.85 µM (inactive) in the experiment with T47D; 2.38 µM (inactive) in the experiment with U-251. The GI50 in the experiment with UACC-257 is 2.86 µM (inactive).
As for `COc1ccc(CCCNC(=O)Cc2ccccc2CO)cc1OC`, the GI50 in the experiment on ACHN was > 100 µM (inactive); in the experiment with BT-549, > 100 µM (inactive); in the experiment with HCT-116 it was > 100 µM (inactive); in the experiment on HCT-15, more than 100 µM; in the experiment on HL-60, > 100 µM (inactive); in the experiment with KM12, > 100 µM (inactive). In addition, the GI50 in the experiment on MDA-MB-231, in the experiment on NCI-H23, in the experiment on NCI/ADR-RES, in the experiment on OVCAR-4, in the experiment on OVCAR-5 and in the experiment on PC-3 was > 100 µM (inactive) each time. In addition, the GI50 in the experiment on SNB-19, with SW-620, in the experiment on T47D, in the experiment on U-251 and in the experiment on UACC-257 was > 100 µM (inactive) throughout.
Take `CNN1C(=O)c2c(N)c(C#N)c(-c3ccccc3)c(-c3ccccc3)c2C1=O`: the GI50 is > 100 µM (inactive) in the experiment with ACHN; > 100 µM (inactive) in the experiment with BT-549; 44.1 µM (inactive) with HCT-116; more than 100 µM with HCT-15; 30.5 µM (inactive) in the experiment on HL-60; 86.9 µM (inactive) in the experiment with KM12. Further, the GI50 with MDA-MB-231 is > 100 µM (inactive); in the experiment on NCI/ADR-RES it was 82.2 µM (inactive); with OVCAR-4 it was > 100 µM (inactive); in the experiment with OVCAR-5, 30.3 µM (inactive); with PC-3 it was 55.6 µM (inactive); in the experiment on SF-295 it was 73.5 µM (inactive). Besides, the GI50 with SF-539 was 57.7 µM (inactive); in the experiment with SNB-19, > 100 µM (inactive); in the experiment on SW-620 it was > 100 µM (inactive); with T47D, 17.9 µM (inactive); in the experiment with U-251, 78.9 µM (inactive); in the experiment on UACC-257, > 100 µM (inactive).
`O=C(CN1C(=O)c2ccccc2C1=O)OCC1CCCN2CCCCC12` (stereo not drawn): the GI50 in the experiment with ACHN was > 100 µM (inactive); with BT-549, > 100 µM (inactive); in the experiment on HCT-116, > 100 µM (inactive); in the experiment with HCT-15, more than 100 µM; in the experiment with HL-60 it was > 100 µM (inactive); in the experiment on KM12, > 100 µM (inactive). Besides, the GI50 with MDA-MB-231, in the experiment on NCI-H23, in the experiment with NCI/ADR-RES, in the experiment on OVCAR-4, with PC-3 and with SF-295 was > 100 µM (inactive) in each case. For the same molecule, the GI50 in the experiment on SF-539, in the experiment on SK-OV-3, in the experiment with SNB-19, in the experiment on SW-620, with T47D and with U-251 was > 100 µM (inactive) throughout. In addition, in the experiment with UACC-257, the GI50 was > 100 µM (inactive).
For `O=C(O)CN1CCNCCN(CC(=O)O)CCN(CC(=O)O)CCNCC1`, the GI50 was > 100 µM (inactive) in the experiment on ACHN; > 100 µM (inactive) in the experiment with BT-549; 35.2 µM (inactive) with HCT-116; 61.9 µM in the experiment with HCT-15; 25.9 µM (inactive) in the experiment on HL-60; > 100 µM (inactive) in the experiment with KM12. Further, the GI50 was > 100 µM (inactive) in the experiment with MDA-MB-231; 23.3 µM (inactive) with NCI/ADR-RES; > 100 µM (inactive) in the experiment with OVCAR-4; 97.7 µM (inactive) in the experiment on OVCAR-5; > 100 µM (inactive) in the experiment on PC-3; > 100 µM (inactive) in the experiment with SF-295. Besides, the GI50 in the experiment on SF-539 is 63.7 µM (inactive); with SK-OV-3, > 100 µM (inactive); in the experiment with SNB-19, > 100 µM (inactive); in the experiment with SW-620, 41.5 µM (inactive); in the experiment on T47D it was > 100 µM (inactive); in the experiment on U-251, > 100 µM (inactive). Besides, the GI50 in the experiment with UACC-257 was > 100 µM (inactive).
For the molecule `COc1cc(OC)nc(-n2c(N)c(C#N)c3ccc([N+](=O)[O-])cc3c2=O)n1`, the GI50 in the experiment on ACHN is > 100 µM (inactive); with BT-549 it was > 100 µM (inactive); in the experiment on HCT-116, > 100 µM (inactive); in the experiment on HCT-15 it was more than 100 µM; in the experiment on HL-60 it was > 100 µM (inactive); in the experiment on KM12, > 100 µM (inactive). In addition, the GI50 in the experiment on MDA-MB-231, in the experiment with NCI-H23, in the experiment with NCI/ADR-RES, in the experiment with OVCAR-4, in the experiment on OVCAR-5 and in the experiment with PC-3 was > 100 µM (inactive) throughout. The GI50 was > 100 µM (inactive) with SF-295; > 100 µM (inactive) with SF-539; > 100 µM (inactive) with SNB-19; > 100 µM (inactive) in the experiment on SW-620; > 100 µM (inactive) with T47D; 92.3 µM (inactive) in the experiment with U-251. Further, the GI50 in the experiment with UACC-257 was > 100 µM (inactive).
Turning to `Cc1cn([C@H]2C[C@H](N=[N+]=[N-])[C@@H](CO)O2)c(=O)[nH]c1=O` [ZIDOVUDINE], the GI50 in the experiment with ACHN is > 100 µM (inactive); in the experiment with BT-549 it was 488 µM (inactive); in the experiment with HCT-116 it was 88.5 µM (inactive); with HCT-15 it was more than 100 µM; in the experiment on HL-60 it was 646 µM (inactive); in the experiment on KM12, 90.8 µM (inactive). Further, the GI50 is > 100 µM (inactive) in the experiment on MDA-MB-231; > 100 µM (inactive) in the experiment with NCI-H23; > 96.4 µM (inactive) in the experiment with NCI/ADR-RES; > 85.1 µM (inactive) in the experiment with OVCAR-4; > 84.5 µM (inactive) in the experiment on OVCAR-5; 885 µM (inactive) in the experiment on PC-3. For the same molecule, the GI50 in the experiment on SK-OV-3, in the experiment on SW-620, with T47D and in the experiment on UACC-257 was > 100 µM (inactive) throughout.
